Measured values taken from US7141540B2, “Cyclodextrin grafted biocompatible amphilphilic polymer and methods of preparation and use thereof” (Genta Salus LLC, priority 2001, dated 2006).

Legend:
[1] = test system: human red blood cells; assay: Hemolysis on fresh human blood cells; assay type: cell-based; settings: for Hemolysis (HC50, mM): human red blood cells, 30 minutes at 37° C., 0 to 50 mg/ml in PBS
Protocol: To further investigate the cytotoxicity of our polymers and their possible biodegradation products, their hemolysis effects were tested on fresh human blood cells in comparison with commercial CD monomers as describe below. The degree of hemolysis was reported as a percentage of the total efflux of hemoglobin in distilled water (Table 6)
1. Red blood cells were isolated from whole human blood by centrifugation at 1000 g for 10 minutes.
2. The plasma was removed and the red blood cells re-suspended in normal buffed saline (PBS, 0.154 M sodium chloride and 0.01 M phosphate, pH=7.4). The red blood cells were pelleted by centrifugation (1000 g for 10 minutes).
3. Step 2 was repeated twice to remove the heme released from damaged cells.
4. The final pellet was diluted with PBS to give a hematocrit of approximately 12 (or 5%) as determined by centrifugal sedimentation.
5.2 ml of polymer or cyclodextrin solutions of a series of concentrations from 0 to 50 mg/ml in PBS buffer) equilibrated at 37° C. in PBS buffer were equilibrated at 37° C. To this was added 100 ul of a red blood cell suspension followed by mixing of the sample with gentle inversion. The samples were incubated for 30 minutes at 37° C.
6. The intact cells and cellular debris were pelleted by centrifugation at 1000 g for 5 min. The supernatant was analyzed spectrophotometrically at 543 nm for released heme.

[2] = Paclitaxel loading (solubilisation) by CD polymers or CD monomers; assay type: physicochemical
Protocol: Preparation of Paclitaxel Complexes with CD Polymers or CD Monomers
(A) Co-dissolving Method: This Method is Suitable for all Complexes with Water Soluble Polymers
The aqueous solution of polymer (or monomer controls) (usually about 100 mg/ml) was mixed with equal volume (usually 40 to 2000 ul) of the paclitaxel solution (Cpaclitael=0.1 to 8.0 mg/ml in methanol). The mixture was incubated at room temperature for about half an hour. Then the solvents were removed in a centrifuge concentrator at room temperature. The concentrated syrup or wax solid was reconstituted by adding water or PBS buffer to the original volume. The mixture was usually a clear or slightly cloudy solution after 30 minutes of reconstitution. The un-dissolved paclitaxel particles were removed either by ultra-filtration (0.2 um filter) or by centrifugation (20 minutes at 20,800 g and room temperature). The paclitaxel concentration in the clear supernatant was quantified by UV absorbance at […] by using the corresponding cyclodextrin polymer solution as the background calibration.
(B) Dialysis Method: This Method is Suitable for the Preparation of all Paclitaxel/polymer Complex Solutions:
The methanol solution of the polymer (usually […]) was mixed with equal volume (100 ul) of paclitaxel solution (1 to 3 mg/ml in methanol). The clear mixture was incubated at room temperature for about half an hour at room temperature, followed by dialysis (MWCO=12,000) overnight against 2 L water. The dialysis solution was usually a clear solution. Trace amounts of paclitaxel particles were removed either by ultra-filtration (0.2 um filter) or by centrifugation (20 minutes at 20,800 g and room temperature). The clear solution was stored at 4° C. or below.

[3] = Stability of Taxol/CD complexes after 10 fold dilution with PBS; assay type: physicochemical; settings: paclitaxel complex, 10X PBS, room temperature
Protocol: (§1) Stability of Taxol/CD Complexes in 50% Serum or After 10 Fold Dilution in PBS:
(§2) • (A) Stability in 50% fetal bovine serum: Taxol/PEG-L8-AcCD (2.0 mg/50 mg in 1.0 ml PBS buffer) or Taxol/DMCD (0.5 mg/50 mg in PBS buffer) complex solutions were prepared as describe in method A of example 7. Fifty micro liters of the complex solutions were diluted with equal volume of fetal bovine serum respectively. Both mixtures were centrifuged at […] at room temperature after incubation at room temperature for 2 hours, 21 hours, 49 hours and 144 hours, respectively. The Taxol concentration in each supernatant was quantified by measuring the UV absorption at 230 nm. • (B) Stability after 10 fold dilution with PBS: Taxol/PEG-L8-AcCD (2.0 mg/50 mg in 1.0 ml PBS buffer) or Taxol/DMCD (0.5 mg/50 mg in PBS buffer) complex solutions were prepared as describe in example 10. Fifty micro liters of the complex solutions were diluted with 450 micro liter of PBS buffer, respectively. Both mixtures were centrifuged at […] at room temperature after incubated room temperature for 2 hours, 21 hours, 49 hours and 144 hours. The Taxol concentration in each supernatant was quantified by measuring the UV absorption at 230 nm.

[4] = Stability of Taxol/CD complexes in 50% fetal bovine serum; assay type: physicochemical; settings: paclitaxel complex, 50% Serum, room temperature
Protocol: as §1, §2

[5] = at 50% CD concentrations; cited from earlier work
[6] = Drug amount in 1.0 ml water or PBS in the presence of 50 mg of polymer or other CD derivatives

## OC[C@H]1O[C@@H]2O[C@H]3[C@H](O)[C@@H](O)[C@@H](O[C@H]4[C@H](O)[C@@H](O)[C@@H](O[C@H]5[C@H](O)[C@@H](O)[C@@H](O[C@H]6[C@H](O)[C@@H](O)[C@@H](O[C@H]7[C@H](O)[C@@H](O)[C@@H](O[C@H]8[C@H](O)[C@@H](O)[C@@H](O[C@H]1[C@H](O)[C@H]2O)O[C@@H]8CO)O[C@@H]7CO)O[C@@H]6CO)O[C@@H]5CO)O[C@@H]4CO)O[C@@H]3CO [βCD, β-cyclodextrin]
[1]
  Hemolysis (HC50, mM): 4.0 mM

## methyl-β-cyclodextrin [DM-CD]
[2]; at day 1, drug amount in 1.0 ml water or PBS in the presence of 50 mg of CD derivative
  Paclitaxel loading (mg/50 mg polymer): ˜0.2 (at day 1) mg/50 mg polymer
[3]; 0 hour
  Remaining paclitaxel % in diluted solution: 100%
[3]; 2 hour
  Remaining paclitaxel % in diluted solution: 86%
[3]; 21 hour
  Remaining paclitaxel % in diluted solution: 13%
[4]; 0 hour
  Remaining paclitaxel % in diluted solution: 100%
[4]; 2 hour
  Remaining paclitaxel % in diluted solution: 100%
[4]; 21 hour
  Remaining paclitaxel % in diluted solution: 100%
[4]; 49 hour
  Remaining paclitaxel % in diluted solution: 100%
[4]; 144 hour
  Remaining paclitaxel % in diluted solution: 100%
[1]
  Hemolysis (HC50, mM): 1.0 mM
[5]
  paclitaxel dissolved: ~33 mg/mL

## Mono-6-(8-amino-3,6-dioxy-octylamino)-6-deoxy-β-cyclodextrin [CD-L8-NH2]
[1]
  toxicity compared with natural β-cyclodextrin: much less toxic
  Hemolysis (HC50, mM): 25 mM

## sulfobutylether-β-cyclodextrin [(SBE)7-CD]
[2]; [6]
  Paclitaxel loading (mg/50 mg polymer): <0.05 mg/50 mg polymer

## hydoxylpropyl β-cyclodextrin [HP-CD]
[2]; [6]
  Paclitaxel loading (mg/50 mg polymer): <0.05 mg/50 mg polymer
[1]
  Hemolysis (HC50, mM): 35 mM
[5]
  paclitaxel dissolved: about 0.7 mg/ml
